We go through one compound from ChEMBL document CHEMBL3046758, “Biological evaluation of novel 1,4-dithiine derivatives as potential antimicrobial agents” (Med Chem Res, 2011).

The subject of data set [1] is Candida albicans. The experiment in a line: Antifungal activity against Candida albicans DSM 1386 after 24 to 48 hr by broth microdilution method. The data set is classed as functional. On the technique in general: Broth dilution looks for growth in wells or tubes with falling amounts of substance.
Data set [2] concerns Pseudomonas aeruginosa. The experiment in a line: Antibacterial activity against Pseudomonas aeruginosa DSM 1117 after 16 to 20 hr by broth microdilution method. It counts as functional.
The test system of data set [3] is Poliovirus 1. Briefly: Antiviral activity against Human poliovirus 1 strain Sabin infected African green monkey Vero76 cells assessed as reduction of virus-induced plaque reduction after 2 days by MTT assay. It counts as functional, organism-based. To be noted: Enterovirus C, Vero 76, 48 h. (In general: Tetrazolium assays rely on reduction of a dye to a coloured formazan, in cell work by metabolically active cells.)

Data set [4] has as its system Staphylococcus aureus. Briefly: Antibacterial activity against Staphylococcus aureus DSM 2569 after 16 to 20 hr by broth microdilution method. The data set is classed as functional.
Data set [5] concerns Vaccinia virus. Briefly: Antiviral activity against Vaccinia virus infected African green monkey Vero76 cells assessed as reduction of virus-induced plaque reduction after 3 days by MTT assay. The data set is classed as functional, organism-based. To be noted: Orthopoxvirus vaccinia, Vero 76, 72 h.
Data set [6] can be described thus: Selectivity index, ratio of CC50 for green monkey Vero76 cells to EC50 for Yellow fever virus. To be noted: read-out: Ratio CC50/EC50. It counts as toxicity, cell-based, Vero 76.
Data set [7] concerns Vesicular stomatitis virus. Briefly: Antiviral activity against Vesicular stomatitis virus infected african green monkey Vero76 cells assessed as reduction of virus-induced plaque reduction after 3 days by MTT assay. It counts as functional, organism-based. To be noted: Vero 76, 72 h.
A short description of data set [8]: Selectivity index, ratio of CC50 for green monkey Vero76 cells to EC50 for HSV1. Set-up: species or system Vero 76.
Data set [9] concerns Human alphaherpesvirus 1. The experiment in a line: Antiviral activity against Human herpesvirus 1 infected African green monkey Vero76 cells assessed as reduction of virus-induced plaque reduction after 3 days by MTT assay. As to conditions: Human alphaherpesvirus 1, Vero 76, 72 h. It counts as functional, organism-based.
Data set [10] in a line: Selectivity index, ratio of CC50 for green monkey Vero76 cells to EC50 for Coxsackievirus B2. It counts as toxicity, cell-based, Vero 76. To be noted: read-out: Ratio CC50/EC50.
The nature of data set [11]: Cytotoxicity against Chlorocebus aethiops (African green monkey) Vero76 cells after 48 to 120 hr by MTT assay. The data set is classed as cell-based, Vero 76. To be noted: chlorocebus sabaeus.
Data set [12] has as its system Coxsackievirus B2. The experiment in a line: Antiviral activity against Human coxsackievirus B2 infected African green monkey Vero76 cells assessed as reduction of virus-induced plaque reduction after 3 days by MTT assay. It counts as functional, organism-based. To be noted: Enterovirus B, Vero 76, 72 h.
Data set [13] deals with Aspergillus niger. The experiment in a line: Antifungal activity against Aspergillus niger DSM 1988 after 24 to 48 hr by broth microdilution method. The data set is classed as functional.
For data set [14], the system named is Mammalian orthoreovirus 1. The experiment in a line: Antiviral activity against Mammalian orthoreovirus 1 infected BHK21 cells assessed as inhibition of virus-induced cytopathogenicity after 3 to 4 days by MTT assay. As to conditions: Mammalian orthoreovirus 1, BHK-21. The data set is classed as functional, organism-based. (Cytopathic effects are the visible damage that an infection or toxin causes in cultured cells.)

For data set [15], the system named is Yellow fever virus. Briefly: Antiviral activity against Yellow fever virus infected BHK21 cells assessed as inhibition of virus-induced cytopathogenicity after 3 to 4 days by MTT assay. The data set is classed as functional, organism-based. To be noted: BHK-21.
Data set [16] is described as follows: Cytotoxicity against Cricetinae BHK21 (hamster normal kidney fibroblast) cells after 48 to 120 hr by MTT assay. As to conditions: BHK21 cells (normal kidney fibroblasts). The data set is classed as cell-based, Mesocricetus auratus, BHK-21.
The test system of data set [17] is Bovine viral diarrhea virus 1. Briefly: Antiviral activity against Bovine viral diarrhea virus 1 infected MDBK cells assessed as inhibition of virus-induced cytopathogenicity after 3 to 4 days by MTT assay. The data set is classed as functional, organism-based. To be noted: Bovine viral diarrhea virus isolates and strains.
Data set [18] is described as follows: Cytotoxicity against Bos taurus MDBK cells after 48 to 120 hr by MTT assay. The data set is classed as cell-based. As to conditions: cattle.
The test system of data set [19] is Human immunodeficiency virus 1. Briefly: Antiviral activity against Human immunodeficiency virus 1 infected human MT4 cells assessed as inhibition of virus-induced cytopathogenicity after 4 days by MTT assay. The data set is classed as functional, organism-based. As to conditions: Human immunodeficiency virus 1, MT4, 96 h.
Data set [20] in a line: Cytotoxicity against Homo sapiens (human) MT4 cells containing integrated HTLV-1 genome after 96 hr by MTT assay. It counts as cell-based.

Where only a bound is given, the exact number is not on record here.

With `O=C1C2=C(SCCS2)C(=O)N1CCCCN1CCN(c2ccccc2)CC1`, the MIC in data set [1], in data set [2], in [4] and in data set [13] was over 100 µM throughout. Moreover, the EC50 is over 100 µM in data set [3]; over 100 µM in data set [5]; over 100 µM in data set [7]; 19 µM in data set [9]; 66 µM in data set [12]; over 100 µM in [14]. Besides, the values for the EC50 in data set [15], in data set [17] and in data set [19] were 88 µM, over 100 µM and over 100 µM, respectively. Further, the results for the selectivity ratio in [6] and in data set [10] were over 1.14 and over 1.51, respectively. Also, in data set [8], the “Ratio CC50/EC50” value is over 5.26. Further, the CC50 in data set [11], in data set [16] and in data set [18] was over 100 µM each time. Also, the CC50 at 96 h in data set [20] is over 100 µM.

By MIC is commonly meant the lowest concentration that inhibits growth of the organism. Broadly, the EC50 is the concentration needed to bring the measured effect to its halfway point. Usually CC50 stands for the concentration that lowers cell viability or growth by half.
